Test results as given in patent US8092805B2, “Dual inhibitors of HIV-1 gp-120 interactions” (priority 2004, dated 2012).

What was measured:
[1] = system: gp120 interaction with CD4; conditions: Biorn et al. 2004; cited from earlier work
YU2 gp120 = target: T1, YU2 gp120 (Human immunodeficiency virus type 1 group M subtype B, UniProt P35961); assay type: binding, HIV-1; conditions: SPR
T1 construct: immobilized YU2 gp120
Procedure: Req. was calculated from 280 to 295 seconds in each concentration sensorgram and plotted against the concentration of the peptide.
Increasing concentrations of peptide were passed over an immobilized high density (5000 RU) surface. […] Buffer injections and controls were subtracted for all reported data. The equilibrium constant KD was calculated from the fit of direct binding to a steady state 1:1 binding model as a function of Req.

Compound: CC[C@H](C)[C@H](NC(=O)[C@@H](N)CCCNC(=N)N)C(=O)N[C@@H](CC(N)=O)C(=O)N[C@@H](CC(N)=O)C(=O)N[C@H](C(=O)N1CCC[C@H]1C(=O)N[C@@H](Cc1c[nH]c2ccccc12)C(=O)N[C@@H](CO)C(=O)N[C@@H](CCC(=O)O)C(=O)N[C@@H](C)C(=O)N[C@@H](CCSC)C(=O)N[C@@H](CCSC)C(=O)O)[C@@H](C)CC [Peptide 1]
- inhibition of interaction of gp120 to CD4 (in words) [1]: micromolar affinity

Compound: RINNIAmpWSEAMM [Peptide 4]
- direct interaction with YU2 gp120 (in words) (YU2 gp120): no effect on gp120
